Source: PubChem BioAssay AID1919006 (Molecular Pharmacology Branch, DTP, NCI, 2023)

System: 885512-296-R-J2-PDC complex spheroid growth, % test/control
Assay: Anticancer human tumor 885512-296-R-J2-PDC patient-derived breast carcinoma cell line growth inhibition [AhR]
Conditions: for IC50: curve of first compound; for viability, T/C: stronger effect = lower value
Description: Multicellular complex tumor spheroid response to aryl hydrocarbon receptor antagonists in combination with a variety of drugs and investigational agents in selected tumor cell lines
The current study was undertaken to assess response to aryl hydrocarbon receptor antagonists in combination with standard-of-care drugs and investigational agents in solid tumor complex spheroid models. Complex spheroids include a stromal component modeled by human endothelial cells (HUVEC) and fibroblasts modeled by human mesenchymal stem cells (MSCs). The concentration ranges selected for each drug and investigational agent were based upon clinically achievable concentrations if the clinical Cmax of the agent was known.
Compounds. The drugs and investigational agents: BAY 2416964 (NSC825713), GNF351 (NSC835774), CH-223191 (NSC835775), CPI-455 (NSC825282), aza-TdCyd (NSC777586), decitabine (NSC127716), belinostat (NSC758774), entinostat (NSC756642), pevonedistat (NSC761192), tazemetostat (NSC777109), talazoparib (NSC765396), olaparib (NSC753686), selinexor (NSC780203), nedisertib (M3814, NSC802822), bortezomib (NSC756655), venetoclax (NSC766270), doxorubicin (NSC123127), elimusertib (BAY189344, NSC800525), ceralasertib (AZD6738, NSC777638), TAK-243 (NSC785004), alisertib (NSC759677), etoposide (NSC141540), topotecan (NSC609699), eribulin (NSC707389), gemcitabine (NSC613327), carboplatin (NSC241240), cisplatin (NSC119875), and SN-38 (NSC673596) were obtained from the National Cancer Institute (NCI) Developmental Therapeutics Program Chemical Repository (32). The FDA-approved anticancer drug set is available from the Developmental Therapeutics Program at https://dtp.cancer.gov/organization/dscb/obtaining/available plates.htm. […] The stock solutions were prepared in dimethyl sulfoxide (DMSO, Sigma-Aldrich, St. Louis, MO, cat. D2650), except for the platinum compounds which were prepared in saline (Quality Biological, Gaithersburg, MD, cat. 114-055-101), at 800-fold the tested concentration and stored at -70 degrees C prior to their use. All drugs and investigational agents were tested over a range starting from a high concentration at or near the clinical Cmax and decreasing in half-log increments. If the clinical Cmax for an agent had not been determined, the highest concentration tested was 10 microM (Table 1).
Cell Culture. All cells were maintained in an incubator at 37 degrees C and 5% CO2 with 95% humidity. The PDC lines were cultured according to standard operating procedures established by the NCI PDMR (https://pdmr.cancer.gov). Briefly, all PDCs were thawed and cultured in Matrigel-coated flasks prepared with a working solution of 1X Ham's F-12 nutrient mix, without supplementation (Invitrogen, Waltham, MA, cat. 11765054), 100 U/mL penicillin-streptomycin (Invitrogen, cat. 15140122), and 2.5% Matrigel (Corning Inc., Corning, NY, cat. 354248) for the first three passages. All PDCs were cultured in complete DMEM/F-12 media containing advanced DMEM/F-12 (Invitrogen, cat. 12634028), 4.9% defined fetal bovine serum, heat inactivated (HyClone Laboratories Inc., Logan, UT, cat. SH30070.03HI), 389 ng/mL hydrocortisone (Sigma-Aldrich, cat. H4001), 9.7 ng/mL human EGF recombinant protein (Invitrogen, cat. PHG0313), 23.4 microg/mL adenine (Sigma-Aldrich, cat. A2786), 97.3 U/mL penicillin-streptomycin (Invitrogen, cat. 15140122), 1.9 mM L-glutamine (Invitrogen, cat. 25030081), and 9.7 microM Y-27632 dihydrochloride (Tocris Bioscience, Bristol, United Kingdom, cat. 1254). The PDCs were cultured in complete DMEM/F12 media without 10 microM Y-27632 dihydrochloride for at least two passages prior to the screen. The established cell lines NCI-H1341 and […] were cultured in DMEM/F-12, HEPES (Invitrogen, cat. 11330032), 5% defined fetal bovine serum (HyClone Laboratories Inc., cat. SH30070.03), ITS premix universal culture supplement [insulin (5 microg/mL), transferrin (5 microg/mL), and selenious acid (5 ng/mL)] […]

[1] = second compound 0.1 µM, first compound 0.0316 µM
[2] = second compound 0.1 µM, first compound 0.1 µM
[3] = second compound 0.1 µM, first compound 0.316 µM
[4] = second compound 0.1 µM, first compound 1 µM
[5] = second compound 0.1 µM, first compound 3.16 µM
[6] = second compound 0.1 µM, first compound 10 µM
[7] = second compound 0.316 µM, first compound 0.0316 µM
[8] = second compound 0.316 µM, first compound 0.1 µM
[9] = second compound 0.316 µM, first compound 0.316 µM
[10] = second compound 0.316 µM, first compound 1 µM
[11] = second compound 0.316 µM, first compound 3.16 µM
[12] = second compound 0.316 µM, first compound 10 µM
[13] = second compound 1 µM, first compound 0.0316 µM
[14] = second compound 1 µM, first compound 0.1 µM
[15] = second compound 1 µM, first compound 0.316 µM
[16] = second compound 1 µM, first compound 1 µM
[17] = second compound 1 µM, first compound 3.16 µM
[18] = second compound 1 µM, first compound 10 µM
[19] = second compound 3.16 µM, first compound 0.0316 µM
[20] = second compound 3.16 µM, first compound 0.1 µM
[21] = second compound 3.16 µM, first compound 0.316 µM
[22] = second compound 3.16 µM, first compound 1 µM
[23] = second compound 3.16 µM, first compound 3.16 µM
[24] = second compound 3.16 µM, first compound 10 µM
[25] = second compound 10 µM, first compound 0.0316 µM
[26] = second compound 10 µM, first compound 0.1 µM
[27] = second compound 10 µM, first compound 0.316 µM
[28] = second compound 10 µM, first compound 1 µM
[29] = second compound 10 µM, first compound 3.16 µM
[30] = second compound 10 µM, first compound 10 µM
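Further: spheroids exposed to compounds for seven days.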

CCN(c1cc(-c2ccc(CN3CCOCC3)cc2)cc(C(=O)NCc2c(C)cc(C)[nH]c2=O)c1C)C1CCOCC1 + Cc1cncc(-c2nc(NCCc3c[nH]c4ccccc34)c3ncn(C(C)C)c3n2)c1
IC50 (second compound 0.1 µM): > 3000 nM | IC50 (second compound 0.316 µM): > 3000 nM | IC50 (second compound 1 µM): > 3000 nM | IC50 (second compound 3.16 µM): > 3000 nM | IC50 (second compound 10 µM): < 9.49 nM | viability, T/C (second compound 0.1 µM, first compound 0.00949 µM): 98.8% | viability, T/C (second compound 0.1 µM, first compound 0.03 µM): 104% | viability, T/C (second compound 0.1 µM, first compound 0.0949 µM): 91.3% | viability, T/C (second compound 0.1 µM, first compound 0.3 µM): 87.8% | viability, T/C (second compound 0.1 µM, first compound 0.949 µM): 94.8% | viability, T/C (second compound 0.1 µM, first compound 3 µM): 83.3% | viability, T/C (second compound 0.316 µM, first compound 0.00949 µM): 102% | viability, T/C (second compound 0.316 µM, first compound 0.03 µM): 105% | viability, T/C (second compound 0.316 µM, first compound 0.0949 µM): 98% | viability, T/C (second compound 0.316 µM, first compound 0.3 µM): 94.9% | viability, T/C (second compound 0.316 µM, first compound 0.949 µM): 88.5% | viability, T/C (second compound 0.316 µM, first compound 3 µM): 74.8% | viability, T/C (second compound 1 µM, first compound 0.00949 µM): 91.4% | viability, T/C (second compound 1 µM, first compound 0.03 µM): 93.5% | viability, T/C (second compound 1 µM, first compound 0.0949 µM): 85.7% | viability, T/C (second compound 1 µM, first compound 0.3 µM): 73.6% | viability, T/C (second compound 1 µM, first compound 0.949 µM): 72.8% | viability, T/C (second compound 1 µM, first compound 3 µM): 80.1% | viability, T/C (second compound 3.16 µM, first compound 0.00949 µM): 58.6% | viability, T/C (second compound 3.16 µM, first compound 0.03 µM): 62.1% | viability, T/C (second compound 3.16 µM, first compound 0.0949 µM): 59.9% | viability, T/C (second compound 3.16 µM, first compound 0.3 µM): 58.8% | viability, T/C (second compound 3.16 µM, first compound 0.949 µM): 53.5% | viability, T/C (second compound 3.16 µM, first compound 3 µM): 54.8% | viability, T/C (second compound 10 µM, first compound 0.00949 µM): 21.8% | viability, T/C (second compound 10 µM, first compound 0.03 µM): 24.6% | viability, T/C (second compound 10 µM, first compound 0.0949 µM): 24.4% | viability, T/C (second compound 10 µM, first compound 0.3 µM): 18.8% | viability, T/C (second compound 10 µM, first compound 0.949 µM): 13% | viability, T/C (second compound 10 µM, first compound 3 µM): 8.18%

CC1COCCN1c1cc(C2(S(C)(=N)=O)CC2)nc(-c2ccnc3[nH]ccc23)n1 (stereo not given) + Cc1cncc(-c2nc(NCCc3c[nH]c4ccccc34)c3ncn(C(C)C)c3n2)c1
IC50 (second compound 0.1 µM): 2280 nM | IC50 (second compound 0.316 µM): 1950 nM | IC50 (second compound 1 µM): 1510 nM | IC50 (second compound 3.16 µM): 282 nM | IC50 (second compound 10 µM): < 31.6 nM | viability, T/C [1]: 99.8% | viability, T/C [2]: 102% | viability, T/C [3]: 103% | viability, T/C [4]: 95% | viability, T/C [5]: 32.3% | viability, T/C [6]: 4.89% | viability, T/C [7]: 99.2% | viability, T/C [8]: 99.5% | viability, T/C [9]: 97.3% | viability, T/C [10]: 81.9% | viability, T/C [11]: 26.9% | viability, T/C [12]: 6.7% | viability, T/C [13]: 86.4% | viability, T/C [14]: 86.1% | viability, T/C [15]: 82.9% | viability, T/C [16]: 64.7% | viability, T/C [17]: 23.6% | viability, T/C [18]: 4.77% | viability, T/C [19]: 65% | viability, T/C [20]: 55.3% | viability, T/C [21]: 47.7% | viability, T/C [22]: 42.4% | viability, T/C [23]: 20.4% | viability, T/C [24]: 6.04% | viability, T/C [25]: 22.3% | viability, T/C [26]: 22.7% | viability, T/C [27]: 19.9% | viability, T/C [28]: 18.2% | viability, T/C [29]: 12.5% | viability, T/C [30]: 5%

NS(=O)(=O)OCC1CC(n2ccc3c(NC4CCc5ccccc54)ncnc32)CC1O (stereo not given) + CC(CO)NC(=O)c1cc(-c2ccc(Cl)cc2)nn(-c2cnn(C)c2)c1=O
IC50 (second compound 0.1 µM): 97 nM | IC50 (second compound 0.316 µM): 98.9 nM | IC50 (second compound 1 µM): 101 nM | IC50 (second compound 3.16 µM): 89.1 nM | IC50 (second compound 10 µM): 58.7 nM | viability, T/C [1]: 111% | viability, T/C [2]: 48.4% | viability, T/C [3]: 15% | viability, T/C [4]: 7.66% | viability, T/C [5]: 6.85% | viability, T/C [6]: 5.35% | viability, T/C [7]: 97.6% | viability, T/C [8]: 49.5% | viability, T/C [9]: 15.9% | viability, T/C [10]: 7.66% | viability, T/C [11]: 5.71% | viability, T/C [12]: 6.67% | viability, T/C [13]: 106% | viability, T/C [14]: 50.3% | viability, T/C [15]: 17.3% | viability, T/C [16]: 7.69% | viability, T/C [17]: 7.18% | viability, T/C [18]: 7.68% | viability, T/C [19]: 84.1% | viability, T/C [20]: 46.1% | viability, T/C [21]: 16.7% | viability, T/C [22]: 7.54% | viability, T/C [23]: 7.16% | viability, T/C [24]: 7.08% | viability, T/C [25]: 65.6% | viability, T/C [26]: 36.1% | viability, T/C [27]: 19.3% | viability, T/C [28]: 8.18% | viability, T/C [29]: 6.74% | viability, T/C [30]: 6.33%
